Measurements from patent US20200246308A1, “SYNERGISTIC COMBINATIONS OF UROLITHINS A AND B FOR IMPROVING COGNITIVE CAPACITY OR COGNITIVE FUNCTION” (Natreon, Inc., priority 2018, published 2020).
Entries after “also recorded” stand apart in the source; their conditions may differ.

How the values were obtained:
[1] = test system: cortical brain mitochondria; assay: Mitochondrial respiration and respiratory control ratio (RCR) of isolated brain cortex mitochondria after 21 days treatment; conditions: for Respiratory control ratio (RCR): old mice (18 to 20 month), 50 mg/kg p.o.; for Respiratory control ratio (RCR) / Mitochondrial respiration in all states: 21 days; for State II respiratory rate / Mitochondrial respiration in all states: 50 mg/kg; for Mitochondrial respiration in all states: young and old mice, vs respective normal control; for Respiratory rate at state V (complex I): FCCP
[2] = target: T1, Rat Acetylcholinesterase-induced β-Amyloid (Aβ1-40) Aggregation (Rattus norvegicus, UniProt P37136); assay: Inhibition of AChE-induced β-amyloid peptide aggregation, ThT method; assay type: biochemical; conditions: test compounds 50 μM, B:A in μM, ThT fluorescence, 48 h
T1 sequence (P37136 32-614): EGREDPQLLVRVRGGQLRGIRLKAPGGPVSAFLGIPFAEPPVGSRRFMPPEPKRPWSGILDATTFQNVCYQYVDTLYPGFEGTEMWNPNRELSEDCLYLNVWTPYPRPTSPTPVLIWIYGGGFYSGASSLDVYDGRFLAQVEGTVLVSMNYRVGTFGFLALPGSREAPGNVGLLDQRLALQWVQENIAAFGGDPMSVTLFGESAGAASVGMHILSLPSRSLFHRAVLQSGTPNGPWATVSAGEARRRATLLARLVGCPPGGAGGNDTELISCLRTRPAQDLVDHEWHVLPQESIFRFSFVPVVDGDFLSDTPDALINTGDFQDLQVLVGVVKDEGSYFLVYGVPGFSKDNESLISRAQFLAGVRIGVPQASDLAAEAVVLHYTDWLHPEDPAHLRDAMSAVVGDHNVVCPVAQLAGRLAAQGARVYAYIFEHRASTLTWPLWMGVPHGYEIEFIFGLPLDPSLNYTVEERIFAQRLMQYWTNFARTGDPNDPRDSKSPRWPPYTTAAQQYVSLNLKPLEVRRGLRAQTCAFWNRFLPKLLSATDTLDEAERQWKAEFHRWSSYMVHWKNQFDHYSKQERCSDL
Protocol: Chemical reagents and starting materials were employed as above.
The effect of 3-OH-DBP (Urolithin B: B) and 3,8-(OH)2-DBP (Urolithin A: A) on the aggregation propensity of Aβ1-40 and (Thiofavin-T) ThT assay measurements were performed. […] Therefore, ThT assay was performed to study the effect of 3-(OH)-DBP (B) and 3,8-(OH)2-DBP (A) on the fibrillization of Aβ1-40.
The Aβ1-40 (10 μM and 30 μM) was incubated alone and independently with different concentrations of test compounds in the ratios shown in Tables 6 and 7, respectively.
2 μL of different concentrations of Aβ40 (10 and 30 μM) was incubated with 16 μL of AChE in the presence of different ratio of test compounds to obtain final concentrations of 30 or 10 μM Aβ40, […], 10, 20, 50 μM test compounds and 2 μL assay buffer ([…]). The mixture was incubated at room temperature for 24 or 48 hr in dark (Time period may be changed according to experiment).
Fluorescence intensities were obtained for Aβ40 aggregation in the presence of inhibitors, in the absence of inhibitors and the blanks or solvent control. After incubation, 178 μL of 20 μM ThT was added.
The percentage inhibition of the AChE-induced Aβ1-40 aggregation was calculated as follows.
Preparation of Aβ40Stock: Aβ40 peptide (0.25 mg) (Calbiochem, Merck) was dissolved in hexafluoro-2-propanol (HFIP, 0.2 mL) and incubated at room temperature for 1 h. HFIP was then removed by the flow of nitrogen and further dried under vacuum. The concentration of Aβ40 peptide was determined by UV-vis spectrometry (Biotek USA; Plate reader) using a molar extinction coefficient of 1450 cm^−1 M^−1 at 276 nm. HFIP-treated A1340 was then dissolved in 10 mM PBS buffer to a concentration of […] at pH 7.4. The assay was performed in triplicate and in three independent runs.

[3] = test system: acetylcholine (ACh) level in HIP tissue; assay: Acetylcholine level in hippocampal tissue, Amplex Red kit (Example 9D); assay type: in vivo, Male Wistar rats; conditions: p.o. 7 days: B 50, A 50, Donepezil 3, B:A 10:50 and 50:50, Shilajit 50 mg/kg
Protocol: Drug solution was freshly prepared in 0.3% CMC and administered by oral gavage once a day, for a period of 7 days. Briefly, the whole experiment was conducted for 8 days. Scopolamine (1 mg/kg), a muscarinic receptor antagonist, was dissolved in normal saline (0.9% NaCl) and administered intraperitoneally 1 h after drugs administration on seventh day.
Sample preparation: The animals were killed by decapitation and the brain tissues were dissected out in ice-cold conditions and stored at −80° C. until use. Tissue was homogenized in 1.0 ml of 0.1M perchloric acid with a Potter-Elvehjem homogenizer. The homogenate was kept in the polypropylene tubes for 15 min after which 40 μl of 4M potassium acetate was added to adjust the pH to 4.0 followed by centrifugation for 15 min at 4000×g. Supernatant was used to estimate acetylcholine and AChE activities.
Samples were prepared as in Example 9C. The amount of acetylcholine in brain tissues was measured using Amplex red assay kit (Molecular Probes, Inc., USA). An acetylcholine standard curve was used in each experiment. Briefly, the reactions are initiated by adding 0.1 ml of control (10 μM H2O2) and tissue homogenates were taken in two separate polypropylene tubes and then 0.1 ml working solution of 400 μM Amplex Red reagent containing 2 U/mL HRP, 0.2 U/mL choline oxidase and 1 U/mL acetylcholinesterase were added to each tube. After incubation for 45 min, the fluorescence was recorded with the help of spectrofluorometer at 530 nm excitation and 590 nm emission wavelengths. The protein content was determined using standard protocol (Lowry, et al., 1951).
Statistical analyses: The results were expressed as means±Standard Error mean (SEM). The intergroup variation was measured by one-way ANOVA followed by Student-Newman-Keuls test. Two-way followed by Bonferroni test was employed to discover the intergroup variation in Y maze test considering groups and arms as two independent variables. Statistical analysis was done by using Graph Pad prism version 5 (San Diego, Calif.). A level of p<0.05 was accepted as statistically significant.

Row | SMILES | Respiratory control ratio (RCR) ([1]; vs old control) | State II respiratory rate ([1]; old mice, vs old control) | Mitochondrial respiration in all states [1] | State II respiratory rate ([1]; young mice, vs young control) | Respiratory rate at state V (complex I) ([1]; young mice) | inhibition of Aβ40 aggregation ([2]; Aβ40 30 μM) [%] | inhibition of Aβ40 aggregation ([2]; amyloid beta 10 μM) [%] | Scopolamine-induced decrease in ACh level in HIP tissue [3]
1 | O=c1oc2cc(O)ccc2c2ccc(O)cc12 [Urolithin A, 3,8-dihydroxy-dibenzo-alpha-pyrone] | significantly increased the RCR | found to be increased | significantly increased mitochondrial respiration | significant increases in respiratory rate | significantly found to be increased | ~32 | ~35 | attenuated the scopolamine induced decrease in ACh level
2 | O=c1oc2cc(O)ccc2c2ccccc12 [Urolithin B, 3-hydroxy-dibenzo-alpha-pyrone] | significantly increased the RCR | found to be increased | significantly increased mitochondrial respiration | significant increases in respiratory rate | significantly found to be increased; also recorded: less effect | ~41 | ~50 | attenuated the scopolamine induced decrease in ACh level
